# Measurements reported in patent US5306620A, “Antibodies that bind to a ligand-induced binding site on integrin and induce integrin activation” (The Scripps Research Institute, priority 1990, dated 1994).
# Residues, ends and D or L forms follow the SMILES beside them.
# Tests used:
# GPIIb-IIIa on platelets [1] = target: T1, GPIIb-IIIa on platelets (Homo sapiens, UniProt P05106+P08514); experiment: PAC1-binding assay (FACS) on platelets; format: cell-based
# T1 construct: endogenous in cells; host or cells: platelets
# T1 sequence (P08514 32-887 limits assumed): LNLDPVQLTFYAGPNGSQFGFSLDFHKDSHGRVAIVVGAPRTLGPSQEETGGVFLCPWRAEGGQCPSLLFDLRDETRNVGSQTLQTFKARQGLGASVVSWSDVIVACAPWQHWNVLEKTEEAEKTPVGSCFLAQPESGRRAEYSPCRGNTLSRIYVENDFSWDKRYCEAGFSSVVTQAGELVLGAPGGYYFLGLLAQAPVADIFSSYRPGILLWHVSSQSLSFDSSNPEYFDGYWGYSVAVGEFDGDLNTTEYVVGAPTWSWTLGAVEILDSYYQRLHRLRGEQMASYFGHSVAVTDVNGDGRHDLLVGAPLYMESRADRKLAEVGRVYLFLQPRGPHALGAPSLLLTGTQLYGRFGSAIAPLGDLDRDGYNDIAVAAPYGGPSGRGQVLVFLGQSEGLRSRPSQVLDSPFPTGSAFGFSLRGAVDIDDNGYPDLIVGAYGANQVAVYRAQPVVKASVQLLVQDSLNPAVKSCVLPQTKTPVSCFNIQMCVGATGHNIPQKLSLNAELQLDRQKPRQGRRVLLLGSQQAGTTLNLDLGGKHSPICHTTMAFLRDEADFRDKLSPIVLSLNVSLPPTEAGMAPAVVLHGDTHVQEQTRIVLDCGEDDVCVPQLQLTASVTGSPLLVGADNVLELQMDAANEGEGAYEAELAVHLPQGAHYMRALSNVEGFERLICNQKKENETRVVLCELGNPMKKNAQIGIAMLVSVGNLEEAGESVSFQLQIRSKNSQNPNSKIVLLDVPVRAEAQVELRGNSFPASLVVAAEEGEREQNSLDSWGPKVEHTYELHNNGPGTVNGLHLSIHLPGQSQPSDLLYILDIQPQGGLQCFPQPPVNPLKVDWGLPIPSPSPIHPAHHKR
# T1 sequence (P08514 891-1039 partner limits assumed): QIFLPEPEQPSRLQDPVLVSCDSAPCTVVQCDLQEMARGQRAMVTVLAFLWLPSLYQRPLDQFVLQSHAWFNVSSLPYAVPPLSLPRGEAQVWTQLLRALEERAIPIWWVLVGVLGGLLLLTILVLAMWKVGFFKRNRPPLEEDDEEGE
# T1 sequence (P05106 27-788): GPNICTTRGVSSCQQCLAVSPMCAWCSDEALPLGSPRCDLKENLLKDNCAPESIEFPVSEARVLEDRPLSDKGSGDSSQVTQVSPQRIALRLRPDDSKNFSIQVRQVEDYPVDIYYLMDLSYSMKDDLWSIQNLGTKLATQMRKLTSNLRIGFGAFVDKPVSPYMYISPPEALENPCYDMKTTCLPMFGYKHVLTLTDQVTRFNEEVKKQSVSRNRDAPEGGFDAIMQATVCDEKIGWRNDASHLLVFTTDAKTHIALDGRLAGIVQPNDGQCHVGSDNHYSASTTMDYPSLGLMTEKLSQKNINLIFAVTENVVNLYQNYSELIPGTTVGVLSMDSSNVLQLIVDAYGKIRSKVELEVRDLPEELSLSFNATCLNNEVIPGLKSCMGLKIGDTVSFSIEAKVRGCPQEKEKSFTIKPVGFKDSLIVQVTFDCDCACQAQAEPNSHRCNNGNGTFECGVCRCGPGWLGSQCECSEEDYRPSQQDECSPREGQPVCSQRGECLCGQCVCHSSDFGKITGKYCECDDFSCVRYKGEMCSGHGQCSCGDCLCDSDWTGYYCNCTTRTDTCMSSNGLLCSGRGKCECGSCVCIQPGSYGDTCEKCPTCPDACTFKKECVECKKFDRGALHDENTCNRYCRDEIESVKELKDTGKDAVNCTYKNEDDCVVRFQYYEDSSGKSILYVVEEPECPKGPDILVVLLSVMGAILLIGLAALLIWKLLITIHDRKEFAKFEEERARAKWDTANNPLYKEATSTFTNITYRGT
# Experimental: (§1) Antibody binding to cells was analyzed by flow cytometry, also referred to as fluorescence-activated cell sorting (FACS). Cells for flow cytometric analysis were harvested with 3.5 mM EDTA and an aliquot of 5×10^5 cells was pelleted, resuspended in media or Tyrodes buffer containing a specific first antibody, and incubated for 20 minutes on ice with or without peptide ligands. Cells were pelleted, washed once, and incubated for 20 minutes with the second antibody, FITC-conjugated goat anti-mouse IgG (Tago, Burlingame, Calif.). Cells were then pelleted, resuspended in 0.5 ml media or Tyrodes and analyzed on a FACS IV analyzer (Becton-Dickinson, San Jose, Calif.).
# In the PAC1-binding assay for integrin-activating antibody, the activating antibody was admixed with an integrin binding cell at a concentration of about 5 uM antibody.
# αIIb β3 on A5 cells [2] = target: T2, αIIb β3 on A5 cells (Homo sapiens, UniProt P05106+P08514); experiment: PAC1-binding assay (FACS) on A5 cells; format: cell-based; details: for stimulation of PAC1 binding to A5 cells by platelet agonists: ADP 10 to 50 uM, thrombin 1 to 5 units/ml, epinephrine 4 to 200 uM, phorbol myristate acetate 5 to 500 nm, ionomycin 5 to 200 nM
# T2 construct: expressed in transfected cells
# T2 sequence (P08514 32-887 limits assumed): as the sequence (P08514 32-887 limits assumed) above
# T2 sequence (P08514 891-1039 partner limits assumed): as the sequence (P08514 891-1039 partner limits assumed) above
# T2 sequence (P05106 27-788): as the sequence (P05106 27-788) above
# Experimental: as §1
# To that end, PAC1 antibody was fluoresceinated with FICT as described by Taub et al., J. Biol. Chem., 264:259-265 (1989) to form FITC-PAC1 and used directly in flow cytometry. Briefly, 5×10^5 cells were harvested and resuspended to 50 ul in Tyrodes buffer [Frelinger et al., J. Biol. Chem., 265:6346-6352 (1990)]containing 10 ug/ml of FITC-PAC1 in the presence or absence of additional agonists. After a 30 minute incubation at 37 degrees, the samples were diluted to 0.5 ml with Tyrodes and analyzed by flow cytometry as described in Example 7.
# To evaluate the capacity of a monoclonal antibody to activate (i.e., to increase specific ligand binding affinity of) the integrin GPIIb-IIIa, an assay was developed that measures PACT binding to GPIIb-IIIa bearing cells using the FACS analysis as described in Example 7.
# In the PAC1-binding assay for integrin-activating antibody, the activating antibody was admixed with an integrin binding cell at a concentration of about 5 uM antibody. For GPIIb-IIIa, a suspension of cells was prepared as in Example 9, activating antibody was admixed at 5 uM and the admixture was maintained for 20 minutes on ice. Thereafter FITC-PAC1 was added as described in Example 9 and the FACS protocol followed as in Example 9 to measure PAC1 binding.
# αIIb β3 on A5 cells [3] = target: T2, αIIb β3 on A5 cells; experiment: Soluble 125I-fibrinogen binding to A5 cells; format: cell-based
# Experimental: FIG. 4 illustrates the equilibrium binding of soluble fibrinogen (Fg) to Ab-62 stimulated (activated) A5 cells when measured as in Example 10. A5 cells at a concentration of 10^6 per ml were admixed with 6 uM of Sepharose-purified AB-62 and maintained at 22 C. for 30 minutes to activate the integrin. Iodinated Fg was then admixed in varying concentrations from 0.01 to 1 nM. After a 60 minute maintenance period, the bound ligand was separated from free ligand by centrifugation through 0.3 ml of 20% sucrose. The amount of radiolabelled ligand associated with the cell pellet was determined by gamma detection. Saturable binding was measured in three different experiments and plotted versus the input Fg concentration to obtain an averaged profile. A Scatchard replot of the binding data was made and is shown in the insert.
# An independent measure of integrin activation was made by detecting the ability of a cell containing the integrin to bind soluble fibrinogen (Fg) that had been labelled with ^125 I. Fg was isolated and labelled with ^125 I by standard methods as described by Marguerie et al., J. Biol. Chem., 255:154-161 (1980) to form ^125 I-Fg. Thereafter, the binding of ^125 I-Fg to transfected cells was assayed as described previously for platelets [Marguerie et al., J. Biol. Chem., 255:154-161 (1980)]. Binding was initiated by the addition of cells to radiolabelled Fg and incubation at 37 degrees for 30 minutes. Bound ligand was separated from free ligand by centrifugation through 0.3 ml of 20% sucrose and the amount of radiolabelled ligand associated with the cell pellet determined by gamma detection.
# Background binding in this assay detected about 30,000 molecules of Fg bound per integrin bearing cell, whereas maximum Ab-62 stimulated A5 cells bound about 95,000 molecules of Fg per cell.
# Equilibrium binding of soluble Fg to Ab-62 stimulated (activated) A5 cells was carried out to better characterize Fg binding. […] A5 cells (10^6 per ml) were incubated with 6 uM Sepharose-purified Ab-62 for 30 minutes at 22 C. to activate the integrin. Thereafter ^125 I-Fg was admixed in varying concentrations from 0.01 to 1 nM. After 60 minutes, bound Fg was measured as described above after centrifugation of the cells through sucrose.
# Saturable binding was measured in three different experiments and plotted versus the input Fg concentration to obtain average data which is shown in FIG. 4. A Scatchard replot of the binding data was also made and is shown in the inset to FIG. 4. The binding of the various concentrations of Fg to activated A5 cells at steady state was analyzed by use of the "Ligand" computer program. […] There was day to day variation in the quantity of αIIb β3 expressed as measured by the binding of the 2G12 antibody (150,000 to 440,000 sites/cell) as well as in the number of Fg receptors (138,000 to 360,000 sites/cell). The ratio of Fg receptors to αIIb β3 expressed per cell on a given day was 0.83±0.05, thus virtually all of the recombinant αIIb β3 was functional with respect to Fg binding.
# [4] = target: T3, αIIb β3 on fixed platelets (Homo sapiens, UniProt P05106+P08514); experiment: FITC-PAC1 binding to formaldehyde fixed platelets; format: cell-based; details: 0.1% paraformaldehyde; PMA 50 nM, thrombin 1 unit/ml
# T3 construct: To fix platelets, blood from a normal donor was centrifuged at 1,000 rpm; endogenous in cells; host or cells: platelets from blood of a normal donor, fixed with 0.1% paraformaldehyde
# T3 sequence (P08514 32-887 limits assumed): as the sequence (P08514 32-887 limits assumed) above
# T3 sequence (P08514 891-1039 partner limits assumed): as the sequence (P08514 891-1039 partner limits assumed) above
# T3 sequence (P05106 27-788): as the sequence (P05106 27-788) above
# Experimental: The data described in Examples 10 and 11 established that Fab fragments of the activating antibodies P41 or Ab62 activate A5 cells and platelets to express αIIb β3 dependent receptors for fluid phase Fg and PAC1. To determine if this activation required intracellular signal transduction events, the capacity of these Fabs to induce PACI binding to formaldehyde fixed platelets was measured.
# To fix platelets, blood from a normal donor was centrifuged at 1,000 rpm for 20 minutes and the resulting platelet rich plasma incubated with 2 ug/ml PGE1 and 1 mM theophylline for 15 minutes at room temperature followed by a 15 minute room temperature incubation with 0.1% paraformaldehyde. Fixed or normal platelets were then analyzed for FITC-PAC1 binding as described above in Example 9 in the presence of platelet agonists, or activating antibody P41.
# [5] = target: T4, solubilized αIIb β3 from platelets (Homo sapiens, UniProt P05106+P08514); experiment: Solution phase assay: 125I-Fg binding to solubilized αIIb β3; format: biochemical
# T4 construct: αIIb β3 was solubilized from platelets; endogenous in cells; host or cells: human platelets, octylglucoside lysate
# T4 sequence (P08514 32-887 limits assumed): as the sequence (P08514 32-887 limits assumed) above
# T4 sequence (P08514 891-1039 partner limits assumed): as the sequence (P08514 891-1039 partner limits assumed) above
# T4 sequence (P05106 27-788): as the sequence (P05106 27-788) above
# Experimental: To determine if activating antibodies could activate αIIb β3 extracted away f rom the membrane milieu, the activating capacity to stimulate Fg binding in a solution phase was assayed. In this assay, αIIb β3 was solubilized from platelets, incubated in the presence or absence of activating monoclonal antibodies, and then bound to microtiter plates coated with a non-activating monoclonal anti β3 antibody.
# The platelet pellet was resuspended and solubilized in ice cold 10 mM Hepes containing 150 mM NaCl, 50 mM octyl-B-D-glucoypyranoside (Calbiochem, La Jolla, Calif.) 1 mm PMSF, 50 ng/ml PGE, 1 mM CaCl2, 1 mM MgCl2, 50 uM leupeptin and 1 mg/ml N-ethylmaleimide (Sigma, St. Louis, Mo.) and centrifuged at 100,000 g for 30 minutes. […] The microtiter wells were incubated at 4 C. overnight, washed twice with a modified Tyrodes-Hepes buffer (2.5 mM Hepes, 150 mM NaCl, 2.5 mM KCl, 1 mM MgCl2, 12 mM NaHCO3, 5.5 mM D-glucose and 1 mg/ml BSA, pH 7.4) containing 50 MM octyl-B-D-glucopyranoside and 0.1 uM activating monoclonal antibody and then twice in Tyrodes-Hepes buffer only to form αIIb β3 -bound microtiter wells. […] Bound radioactivity was counted after 2 washes with Tyrodes-Hepes buffer.
# GPIIb-IIIa on platelets [6] = target: T1, GPIIb-IIIa on platelets; experiment: 125I-anti-LIBS1 binding to platelets in the presence of fibrinogen; details: ADP (10 uM) stimulated platelets, 125I-anti-LIBS1 Fab 0.8 uM, 37 C 30 minutes; read-out: concentration of fibrinogen required for a half-maximal increase in anti-LIBS1 binding
# Experimental: FIG. 1 illustrates anti-LIBS1 binding to platelets in the presence of ADP-stimulated fibrinogen as described in Example 4. Gel-filtered platelets (1 ×10^8 platelets/ml) were incubated with ^125 I-labeled anti-LIBS1 and varied concentrations of fibrinogen in the presence (ADP-stimulated) or absence (Control) of ADP (10 uM) for 30 minutes at 37 C. Platelet-bound radioactivity was separated from free by centrifuging the platelets through a layer of sucrose. Results are shown as the average of triplicate determinations +/ - one standard deviation.
# Platelet rich plasma (PRP) was prepared as in Example 1A and divided into 2 aliquots. In one aliquot, the platelets were stimulated to express functional GPIIb-IIIa (fibrinogen receptors) by admixture of adenosine diphosphate (ADP) to a 10 uM final concentration to produce ADP-stimulatedplatelets. As a negative control, the second aliquot of PRP received no stimulus to produce non-stimulated platelets.
# ^125 I-labeled LIBSA (anti-LIBS1) Fab fragments, prepared by usual techniques from the ^125 I-labeled antibodies described in Example 2, were then admixed to a 0.8 uM final concentration with several samples of each of the PRP aliquots in the presence of varying concentrations of fibrinogen. […] The amount of ^125 I-anti LIBS1 associated with the pellet was then determined by gamma counting.
molecule,measurement,setting,value
"Nc1ncnc2c1ncn2[C@@H]1O[C@H](COP(=O)(O)OP(=O)(O)O)[C@@H](O)[C@H]1O [ADP, adenosine diphosphate]",PAC1 staining of agonist activated platelets,"GPIIb-IIIa on platelets [1]; ADP activated platelets, FACS",stained brightly
same,stimulation of PAC1 binding to A5 cells by platelet agonists,αIIb β3 on A5 cells [2],failed to stimulate
N=C(N)NCCC[C@H](NC(=O)CN)C(=O)NCC(=O)N[C@@H](CCC(=O)O)C(=O)N[C@@H](CO)C(=O)N1CCC[C@H]1C(=O)O [GRGESP] (H-GRGESP-OH),inhibition of soluble 125I-Fg binding to activated A5 cells,αIIb β3 on A5 cells [3],not inhibited
CNC[C@H](O)c1ccc(O)c(O)c1 [epinephrine],stimulation of PAC1 binding to A5 cells by platelet agonists,αIIb β3 on A5 cells [2],failed to stimulate
C[C@H](CCC(=O)O)C[C@H](C)C[C@H](C)C(=O)/C=C(\O)[C@H](C)C[C@H](C)C/C=C/[C@@H](C)[C@@H](O)[C@@H](C)[C@@H](O)C[C@@H]1CC[C@@](C)([C@H]2CC[C@@](C)([C@@H](C)O)O2)O1 [ionomycin],stimulation of PAC1 binding to A5 cells by platelet agonists,αIIb β3 on A5 cells [2],failed to stimulate
CCCCCCCCCCCCCC(=O)O[C@@H]1[C@@H](C)[C@@]2(O)[C@@H](C=C(CO)C[C@]3(O)C(=O)C(C)=C[C@@H]23)[C@@H]2C(C)(C)[C@]12OC(C)=O [phorbol myristate acetate],PAC1 response after fixation of platelets,[4],completely abrogated
same,stimulation of PAC1 binding to A5 cells by platelet agonists,αIIb β3 on A5 cells [2],failed to stimulate
PAC1,reaction of PAC1 with resting platelets,"GPIIb-IIIa on platelets [1]; FITC-PAC1 10 ug/ml, no agonist",did not react
same,reaction of PAC1 with αIIb β3 in the A5 cell line,"αIIb β3 on A5 cells [2]; FITC-PAC1 10 ug/ml, no agonist",did not react
fibrinogen,inhibition of Fg binding to stimulated captured receptor,[5],inhibition
same,non-saturable binding,αIIb β3 on A5 cells [3]; Ab-62 activated A5 cells,2.2±0.4×10^-3
same,receptor concentration,"αIIb β3 on A5 cells [3]; Ab-62 activated A5 cells, 10^6 per ml",2.3 ± 0.3 nM
same,Fg binding sites per cell,"αIIb β3 on A5 cells [3]; Ab-62 activated A5 cells, Ligand program fit","138,000 sites/cell"
same,reversibility of Fg binding,αIIb β3 on A5 cells [3]; Ab-62 stimulated A5 cells,> 75%
same,time for Fg binding to reach steady state,αIIb β3 on A5 cells [3]; Ab-62 stimulated A5 cells,≤ 30 min
same,number of Fg receptors,"αIIb β3 on A5 cells [3]; activated A5 cells, day to day variation","138,000 to 360,000 sites/cell"
same,ratio of Fg receptors to αIIb β3 expressed per cell,αIIb β3 on A5 cells [3]; on a given day,0.83±0.05
same,EC50,GPIIb-IIIa on platelets [6],~0.7 µM
thrombin,PAC1 response after fixation of platelets,[4],completely abrogated
same,stimulation of PAC1 binding to A5 cells by platelet agonists,αIIb β3 on A5 cells [2],failed to stimulate
